From PMC7896091, “Synthesis of novel phytol-derived γ-butyrolactones and evaluation of their biological activity” (Scientific Reports, 2021)

How the values were obtained:
[1] = tested on: Myzus persicae; experiment: EPG monitoring of aphid probing and feeding (no-choice test); type: in vivo; conditions: 8-h EPG; for Mean duration of probing (C + G + E) / Number of probes / Total duration of pathway (C) / Total duration of phloem phase (E) / Total duration of probing (C + G + E): 0.1% solution, n = 12; for Mean duration of probing (C + G + E) / Number of probes / Total duration of pathway (C) / Total duration of phloem phase (E) / Total duration of probing (C + G + E) / Number of probes before first phloem phase / Time from first probe to first phloem phase / Duration of first phloem phase / Total duration of phloem salivation E1 / Total duration of phloem sap ingestion E2 / Number of probes < 3 min: mean ± SE; for Number of probes before first phloem phase / Time from first probe to first phloem phase: activities in non-phloem tissues; for Number of probes before first phloem phase / Time from first probe to first phloem phase / Duration of first phloem phase / Total duration of phloem salivation E1 / Total duration of phloem sap ingestion E2 / Number of probes < 3 min: n = 10-12; for Duration of first phloem phase / Total duration of phloem salivation E1 / Total duration of phloem sap ingestion E2: activities in sieve elements; for Number of probes < 3 min: before first phloem phase; for Proportion of salivation in phloem phase: (duration of E1 / duration of E1 + E2)*100; for Proportion of phloem phase in total probing: index = duration of phloem phase E / duration of probing C + G + E
Procedure: The peach potato aphids Myzus persicae (Sulzer) and the Chinese cabbage Brassica rapa subsp. pekinensis (Lour.) Hanelt were reared in laboratory at 20 °C, 65% r.h., and L16:8D photoperiod. One to seven days old apterous females of M. persicae and 3-week old plants with 4–5 fully developed leaves were used for experiments. M. persicae were obtained from the laboratory culture maintained at the Department of Botany and Ecology for many generations since 2000. All experiments were carried out under the same conditions of temperature, relative humidity, and photoperiod. The bioassays were started at 10–11.a.m. Each compound was dissolved in 70% ethanol to obtain the recommended 0.1% solution[40]. All compounds were applied on the adaxial and abaxial leaf surfaces by immersing a leaf in the ethanolic solution of a given compound for 30 s.[20]. Control leaves of similar size were immersed in 70% ethanol that was used as a solvent for the studied compounds. Experiments were performed 1 h after the compounds application to allow the evaporation of the solvent. Every plant and aphid were used only once.
Aphid probing and the phloem sap uptake by M. persicae was monitored using the technique of electronic registration of aphid probing in plant tissues, known as EPG (= Electrical Penetration Graph), that is frequently employed in insect–plant relationship studies considering insects with sucking-piercing mouthparts[42]–[44]. In this experimental set-up, aphid and plant are connected to electrodes and thus made parts of an electric circuit, which is completed when the aphid inserts its stylets into the plant. Weak voltage is supplied in the circuit, and all changing electric properties are recorded as EPG waveforms that can be correlated with aphid activities and stylet position in plant tissues[45],[46]. The parameters describing aphid behaviour during probing and feeding, such as total time of probing, proportion of phloem patterns E1 and E2, number of probes, etc., are good indicators of plant suitability or interference of probing by chemical or physical factors in individual plant tissues[44]–[46]. In the present study, aphids were attached to a golden wire electrode with conductive silver paint (epgsystems. eu) and starved for 1 h prior to the experiment. Probing behaviour of 12 apterous females/studied compound and control was monitored for 8 h continuously with Giga-4 and Giga-8 DC EPG with 1 GΩ of input resistance recording equipment (EPG Systems, Wageningen, The Netherlands). Each aphid was given access to a freshly prepared plant and each aphid/plant combination was used only once. Various behavioural phases were labelled manually using the Stylet + software (www.epgsystems.eu). The following aphid behaviours were distinguished: no penetration (waveform 'np' – aphid stylets outside the plant), pathway phase—penetration of non-phloem tissues (waveforms 'ABC'), phloem phase (salivation into sieve elements, waveform ‘E1’ and ingestion of phloem sap, waveform ‘E2’), and xylem phase (ingestion of xylem sap, waveform 'G'). Waveform ‘G’ occurred rarely irrespective of the treatment. Therefore, in all calculations the xylem phase was added to the pathway phase and termed as probing in non-phloem tissues. The E1/E2 transition patterns were included in E2. Waveform patterns that were not terminated before the end of the experimental period (8 h) were not excluded from the calculations. The parameters derived from EPG recordings were analyzed according to their frequency and duration in configuration related to activities in peripheral and vascular tissues.
All statistical calculations related to data of the no-choice test were performed using StatSoft, Inc. (2014) STATISTICA (data analysis software system), version 12, www.statsoft.com. […]

[2] = tested on: MV4-11 cells; experiment: Antiproliferative activity, MTT assay; type: cell-based, human; conditions: for Selectivity index SI, MV4-11: SI = IC50 BALB/3T3 / IC50 MV4-11
Procedure: Human biphenotypic B myelomonocytic leukemia MV4-11, human colon cancer LoVo cell line and normal mouse fibroblast BALB/3T3 cells were obtained from American Type Culture Collection (Rockville, Maryland, USA), human lung carcinoma A549 cells were obtained from European Collection of Authenticated Cell Cultures (UK). All the cell lines are being maintained at the Hirszfeld Institute of Immunology and Experimental Therapy, PAS, Wroclaw, Poland and were cultured according the procedure described before.
Cell lines were cultured according to the protocol described before. MV4-11 cells were cultured in RPMI 1640 medium (Gibco, UK) with 1.0 mM sodium pyruvate, and 10% fetal bovine serum (FBS) (all from Sigma-Aldrich, Germany). A549, LoVo and LoVo/DX cells were cultured in RPMI 1640 + Opti-MEM (1:1) (both from Gibco, UK) supplemented with 5% fetal bovine serum, 1.0 mM sodium pyruvate (LoVo and LoVo/DX cells) (all from Sigma Aldrich Germany) and 0.1 μg/mL doxorubicin chloride (Accord) (only LoVo/DX cells). BALB/3T3 cells in Dulbecco medium (IIET, Poland) supplemented with 10% fetal bovine serum (Sigma-Aldrich, Germany). All culture media were supplemented with 2 mM L-glutamine (Sigma-Aldrich, Germany), 100 units/mL penicillin, and 100 µg/mL streptomycin (both from Polfa Tarchomin S.A., Poland). All cell lines were grown at 37 °C with 5% CO2 humidified atmosphere.
The solutions of the compounds (50 mM) were prepared by dissolving the substances in DMSO (Sigma Aldrich, Germany). Then the tested compounds were diluted in culture medium to reach the final concentrations of 625, 125, 25 and 5 μM. Before adding of the tested compounds (24 h prior), the cells were plated in 96-well plates (Sarstedt, Germany) at a density of 1 × 10^4 or 0.5 × 10^4 (A549) cells per well. The assay was performed after 72 h of exposure to 625, 125, 25 and 5 μM of the tested agents. The in vitro cytotoxic effect of all agents was examined using the MTT (MV4-11) or SRB assay, described previously. The results were calculated as an IC50 (inhibitory concentration 50%) the concentration of tested agent, which is cytotoxic for 50% of the cancer cells. Each compound in each concentration was tested in triplicate in a single experiment, which was repeated 3–5 times.

[3] = tested on: LoVo/DX cells; experiment: Antiproliferative activity, SRB assay, doxorubicin resistant subline; type: cell-based, human; conditions: for IC50: Homo sapiens, LoVo/DX, 72 h exposure, SRB, mean ± SD, n.a = no activity in concentration of 5, 25, 125, 625 μM; for Selectivity index SI, LoVo/DX: SI = IC50 BALB/3T3 / IC50 LoVo/DX
Procedure: Cell lines were cultured according to the protocol described before. […] All culture media were supplemented with 2 mM L-glutamine (Sigma-Aldrich, Germany), 100 units/mL penicillin, and 100 µg/mL streptomycin (both from Polfa Tarchomin S.A., Poland). All cell lines were grown at 37 °C with 5% CO2 humidified atmosphere. The solutions of the compounds (50 mM) were prepared by dissolving the substances in DMSO (Sigma Aldrich, Germany). […] The in vitro cytotoxic effect of all agents was examined using the MTT (MV4-11) or SRB assay, described previously. […] Each compound in each concentration was tested in triplicate in a single experiment, which was repeated 3–5 times.

Row | Structure (SMILES) | Mean duration of probing (C + G + E) [1] | Number of probes [1] | Total duration of pathway (C) [1] | Total duration of phloem phase (E) [1] | Total duration of probing (C + G + E) [1] | Number of probes before first phloem phase [1] | Time from first probe to first phloem phase [1] | Duration of first phloem phase [1] | Total duration of phloem salivation E1 [1] | Total duration of phloem sap ingestion E2 [1] | Number of probes < 3 min [1] | Proportion of salivation in phloem phase [1] | Proportion of phloem phase in total probing [1] | Selectivity index SI, MV4-11 [2] | IC50 [3] | Selectivity index SI, LoVo/DX [3] | IC50 ([2]; Homo sapiens, MV4-11, 72 h exposure, MTT, mean ± SD, n.a = no activity in concentration of 5, 25, 125, 625 μM)
1 | C=CC(C)(CCCC(C)CCCC(C)CCCC(C)C)CC(=O)O (stereo not drawn) [compound 3, 3,7,11,15-tetramethyl-3-vinylhexadecanoic acid] | 1.6 ± 0.7 h | 25.3 ± 6.7 | 2.9 ± 0.5 h | 4.1 ± 0.8 h | 7.2 ± 0.2 h | 15.7 ± 5.9 | 2.0 ± 0.5 h | 3.3 ± 0.9 h | 9.0 ± 6.0 min | 3.9 ± 0.8 h | 10.9 ± 4.4 | 8.4% | 52.6% | 3.69 | 55 ± 1.5 µM | 2.64 | 
2 | CC(C)CCCC(C)CCCC(C)CCC[C@]1(C)CC(=O)O[C@@H]1CCl (stereo in doubt) [compound 6, trans-5-Chloromethyl-4-methyl-4-(4′,8′,12′-trimethyltridecyl)dihydrofuran-2-one] | 1.2 ± 0.7 h | 42.9 ± 10.4 | 3.0 ± 0.5 h | 3.5 ± 0.8 h | 6.6 ± 0.5 h | 24.9 ± 9.0 | 3.0 ± 0.8 h | 2.0 ± 0.8 h | 3.0 ± 1.2 min | 3.5 ± 0.8 h | 20.3 ± 7.9 | 9.7% | 46.7% | 5.65 | 188 ± 32.7 µM | 1.46 | 48.3 ± 19.6 µM
